The text below walks through data of patent US20140369979A1, “VECTOR SIMULTANEOUSLY EXPRESSING DODECAMERIC TRAIL AND HSV-TK SUICIDE GENES, AND ANTICANCER STEM CELL THERAPEUTIC AGENT USING SAME” (POSTECH ACADEMY-INDUSTRY FOUNDATION, priority 2012, published 2014).

Each structure is given as a SMILES string.

In one assay the test system is MSC/dTRAIL-TK. Description: Survival rate of MSC/dTRAIL-TK after GCV treatment (MTS method). Format: cell-based, rat. The settings on record: 100 μM GCV, one week after treatment. The method, then: In order to examine the suicide induction effect of MSC/dTRAIL-TK by GCV treatment, cells were treated with 10, 30, and 100 μM of GCV. From 1 day after GCV treatment, survival rate of MSC/dTRAIL-TK was examined by an MTS method every other day.
On the technique in general: Tetrazolium dyes change colour on reduction, which living cells bring about.

Assay [1] concerns TRAIL expression by MSC/dTRAIL-TK. Description: TRAIL expression of MSC/dTRAIL-TK after GCV treatment (ELISA of culture broth). It is filed as cell-based, rat. Particulars: GCV 10, 30, 100 μM, culture broth every 24 hours. As to the method: Next, in order to examine whether TRAIL expression is reduced by MSC/dTRAIL-TK apoptosis, GCV was treated at the same concentrations, and the culture broth was collected every 24 hours to examine TRAIL expression by ELISA (enzyme-linked immunosorbent assay).

In the case of `Nc1nc(O)c2ncn(COC(CO)CO)c2n1` [GCV, ganciclovir], the “survival rate of MSC/dTRAIL-TK” value with MSC/dTRAIL-TK is “almost all cells were eliminated”. For the same compound, in assay [1], the TRAIL expression entry is “TRAIL expression was reduced”.
